Structures are written as SMILES.

For orientation: Ki means a measure of affinity in units of concentration, obtained from inhibition or displacement. Broadly, the EC50 is the concentration that produces a half-maximal response. Read a high EC50 as a need for much substance.

For experiment [1], the target named is T1, isolated recombinant JAK1 kinase domain (Homo sapiens, UniProt P23458).
T1 construct: isolated recombinant JAK1 and JAK2 kinase domain
Description: JAK enzyme assay, JAK1 kinase domain (Caliper LabChip). The format is biochemical. As to conditions: 1.5 nM JAK1, ATP 25 μM, Morrison tight binding model. The procedure, abridged: (§1)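 Recombinant kinase domains phosphorylated a 5-carboxyfluorescein-labelled JAK3-derived peptide for 30 min at 22 °C, and the reaction was stopped with EDTA (50 mM final). Product fraction was measured by Caliper LabChip mobility shift. Ki came from Morrison tight-binding fits corrected for ATP competition (Ki=Ki,app/(1+[ATP]/Km,app)).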

The target in experiment [2] is T2, isolated recombinant JAK2 kinase domain (Homo sapiens, UniProt O60674).
T2 construct: isolated recombinant JAK1 and JAK2 kinase domain
T2 sequence (O60674 849-1124 limits assumed): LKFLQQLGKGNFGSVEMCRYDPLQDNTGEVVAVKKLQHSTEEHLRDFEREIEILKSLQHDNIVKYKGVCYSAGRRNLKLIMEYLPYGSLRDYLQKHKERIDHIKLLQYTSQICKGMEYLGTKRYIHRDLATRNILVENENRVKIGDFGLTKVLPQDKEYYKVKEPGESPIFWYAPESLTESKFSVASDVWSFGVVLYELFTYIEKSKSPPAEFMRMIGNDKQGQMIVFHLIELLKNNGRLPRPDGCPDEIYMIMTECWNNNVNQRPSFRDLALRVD
Description: JAK enzyme assay, JAK2 kinase domain (Caliper LabChip). The format is biochemical. As to conditions: 0.2 nM JAK2, ATP 25 μM, Morrison tight binding model. In a few lines:
as §1

The test system of experiment [3] is JAK1-dependent STAT6 phosphorylation downstream of IL-13 stimulation in BEAS-2B cells. Kind of experiment: JAK1 pathway assay in cell lines: IL-13 p-STAT6 BEAS-2B. The format is cell-based. As to conditions: BEAS-2B human bronchial epithelial cells, 1 hr compound, IL-13 15 min, MSD readout. In a few lines: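 BEAS-2B cells plated a day ahead in complete growth medium; compounds added 1 hr at 37 °C (0.2% DMSO final), then IL-13 at lot-specific EC90 for 15 min at 37 °C. Phospho-STAT6 in lysates measured by MSD; EC50 is 50% inhibition relative to DMSO control.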

T1 sequence (P23458 875-1153 limits assumed): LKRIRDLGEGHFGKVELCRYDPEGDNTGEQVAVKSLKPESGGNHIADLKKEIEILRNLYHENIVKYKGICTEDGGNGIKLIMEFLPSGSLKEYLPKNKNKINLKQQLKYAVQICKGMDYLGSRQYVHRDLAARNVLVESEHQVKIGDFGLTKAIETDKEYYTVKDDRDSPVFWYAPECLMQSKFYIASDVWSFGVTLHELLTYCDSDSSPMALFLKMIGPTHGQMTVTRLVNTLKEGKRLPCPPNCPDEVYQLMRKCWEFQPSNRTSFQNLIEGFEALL

Consider `CCc1cnn(C2(CC#N)CN(c3cccn4nc(Nc5ccc(C(=O)N(C)CC6CCN(C)CC6)cc5)nc34)C2)c1` [Example 84, 4-[[8-[3-(cyanomethyl)-3-(4-ethylpyrazol-1-yl)azetidin-1-yl]-[1,2,4]triazolo[1,5-a]pyridin-2-yl]amino]-N-methyl-N-[(l-methyl-4-piperidyl)methyl]benzamide], for which the Ki in experiment [1] and in experiment [2] was 0.3 nM throughout. Besides, in experiment [3], a half-maximal effect (EC50) was put at 16 nM.

Take `CC(C)c1cnn(C2(CC#N)CN(c3cccn4nc(Nc5cnn(C)c5)nc34)C2)c1` [Example 138, 2-[3-(4-isopropylpyrazol-1-yl)-1-[2-[(l-methylpyrazol-4-yl)amino]-[1,2,4]triazolo[1,5-a]pyridin-8-yl]azetidin-3-yl]acetonitrile]: the Ki was found to be 0.2 nM in experiment [1] and 0.3 nM in experiment [2]. This compound also came in with an EC50 in experiment [3] of 16 nM.

For the compound `N#CCC1(n2cc(C(F)(F)F)cn2)CN(c2cccn3nc(Nc4cccc(C(=O)N5CCC(N6CCOCC6)CC5)c4)nc23)C1` [Example 112, formic acid;2-[1-[2-[3-(4-morpholinopiperidine-1-carbonyl)anilino]-[1,2,4]triazolo[1,5-a]pyridin-8-yl]-3-[4-(trifluoromethyl)pyrazol-1-yl]azetidin-3-yl]acetonitrile], the Ki in experiment [1] was determined as 1 nM; in experiment [2], 4.6 nM. The same compound showed an EC50 in experiment [3] of 69 nM.

As for `CN1CCN(C(=O)Cn2cc(Nc3nc4c(N5CC(CC#N)(N6CCC(C#N)CC6)C5)cccn4n3)cn2)CC1` [Example 13, 1-[3-(cyanomethyl)-1-[2-[[1-[2-(4-methylpiperazin-1-yl)-2-oxo-ethyl]pyrazol-4-yl]amino]-[1,2,4]triazolo[1,5-a]pyridin-8-yl]azetidin-3-yl]piperidine-4-carbonitrile], the Ki in experiment [1] was 1.6 nM; in experiment [2] it was 5.3 nM. In experiment [3], this compound registered an EC50 of 82 nM.

With `CN1CCN(C(=O)Cn2cc(Nc3nc4c(N5CC(CC#N)(c6ccc(C(F)(F)F)cc6)C5)cccn4n3)cn2)CC1` [Example 17], the Ki came out at 0.3 nM in experiment [1] and 1.2 nM in experiment [2]. In experiment [3], the EC50 is 18 nM.

`CCN1CCN(C(=O)Cn2cc(Nc3nc4c(N5CC(CC#N)(c6cccc(SC)c6)C5)cccn4n3)cn2)CC1` [Example 80]: the figures for the Ki in experiment [1] and in experiment [2] were 0.5 nM and 0.8 nM, respectively. The compound also returned an EC50 in experiment [3] of 51 nM.

For the compound `CN1CCN(C(=O)Cn2cc(Nc3nc4c(N5CC(CC#N)(c6ccccc6)C5)cccn4n3)cn2)CC1` [Example 101], the results for the Ki in experiment [1] and in experiment [2] were 0.3 nM and 0.2 nM, respectively. In experiment [3], this compound showed an EC50 of 16 nM.

Regarding `CN1CCN(C(=O)Cn2cc(Nc3nc4c(N5CC(CC#N)(n6cc(NCC(F)(F)F)cn6)C5)cccn4n3)cn2)CC1` [Example 104], the Ki in experiment [1] is 0.3 nM; in experiment [2] it was 0.1 nM. This compound also displayed an EC50 in experiment [3] of 22 nM.

Take `COCCN1CCN(C(=O)Cn2cc(Nc3nc4c(N5CC(CC#N)(c6cccc(Cl)c6)C5)cccn4n3)cn2)CC1` [Example 81, 2-[3-(3-chlorophenyl)-1-[2-[[1-[2-[4-(2-methoxyethyl)piperazin-1-yl]-2-oxo-ethyl]pyrazol-4-yl]amino]-[1,2,4]triazolo[1,5-a]pyridin-8-yl]azetidin-3-yl]acetonitrile]: the Ki in experiment [1] came to 0.4 nM; in experiment [2] it was 1 nM. In experiment [3], this compound displayed an EC50 of 27 nM.

Regarding `N#CCC1(n2cc(C(F)(F)F)cn2)CN(c2cccn3nc(Nc4cnn(CCCO)c4)nc23)C1` [Example 136], the Ki in experiment [1] amounted to 0.9 nM; in experiment [2], 0.8 nM. In experiment [3], this compound yielded an EC50 of 20 nM.

As for `N#CCC1(n2cc(OC(F)F)cn2)CN(c2cccn3nc(Nc4cnn(CC(F)F)c4)nc23)C1` [Example 150, 2-[1-[2-[[1-(2,2-difluoroethyl)pyrazol-4-yl]amino]-[1,2,4]triazolo[1,5-a]pyridin-8-yl]-3-[4-(difluoromethoxy)pyrazol-1-yl]azetidin-3-yl]acetonitrile], the results for the Ki in experiment [1] and in experiment [2] were 0.1 nM and 0.2 nM, respectively. The response in experiment [3] was half-maximal at 6 nM (EC50).

With `CN1CCN(C(=O)Cn2cc(Nc3nc4c(N5CC(CC#N)(N6CCN(C)CC6)C5)cccn4n3)cn2)CC1` [Example 9, 2-[3-(4-methylpiperazin-1-yl)-1-[2-[[1-[2-(4-methylpiperazin-1-yl)-2-oxo-ethyl]pyrazol-4-yl]amino]-[1,2,4]triazolo[1,5-a]pyridin-8-yl]azetidin-3-yl]acetonitrile], the Ki came to 0.6 nM in experiment [1] and 2.5 nM in experiment [2]. In addition, in experiment [3], the EC50 was determined as 34 nM.

For `CCc1cnn(C2(CC#N)CN(c3cccn4nc(Nc5cnn(CC(=O)N6CCC(CN7CCN(C)CC7)CC6)c5)nc34)C2)c1` [Example 47], the values for the Ki in experiment [1] and in experiment [2] were 0.4 nM and 0.2 nM, respectively. In experiment [3], this compound yielded an EC50 of 11 nM.

With `CCc1cnn(C2(CC#N)CN(c3cccn4nc(Nc5cnn(CC(=O)N6CCC(N(C)CC7(C#N)CC7)CC6)c5)nc34)C2)c1` [Example 45, 1-[[[1-[2-[4-[[8-[3-(cyanomethyl)-3-(4-ethylpyrazol-1-yl)azetidin-1-yl]-[1,2,4]triazolo[1,5-a]pyridin-2-yl]amino]pyrazol-1-yl]acetyl]-4-piperidyl]-methyl-amino]methyl]cyclopropane carbonitrile], the Ki in experiment [1] stood at 0.3 nM; in experiment [2], 0.8 nM. This compound came in with an EC50 in experiment [3] of 21 nM.

Take `CN1CCN(C2CCN(C(=O)Cn3cc(Nc4nc5c(N6CC(CC#N)(c7cccc(Cl)c7)C6)cccn5n4)cn3)CC2)CC1` [Example 70, 2-[3-(3-chlorophenyl)-1-[2-[[1-[2-[4-(4-methylpiperazin-1-yl)-1-piperidyl]-2-oxo-ethyl]pyrazol-4-yl]amino]-[1,2,4]triazolo[1,5-a]pyridin-8-yl]azetidin-3-yl]acetonitrile]: the Ki in experiment [1] stood at 0.2 nM; in experiment [2], 0.3 nM. It took 10 nM to reach a half-maximal effect in experiment [3] (EC50).

In the case of `N#CCC1(n2cc(Br)cn2)CN(c2cccn3nc(Nc4cnn(CC(=O)N5CCN(C6CCOCC6)CC5)c4)nc23)C1` [Example 129, 2-[3-(4-bromopyrazol-1-yl)-1-[2-[[1-[2-oxo-2-(4-tetrahydropyran-4-ylpiperazin-1-yl)ethyl]pyrazol-4-yl]amino]-[1,2,4]triazolo[1,5-a]pyridin-8-yl]azetidin-3-yl]acetonitrile], the Ki is 0.3 nM in experiment [1] and 0.8 nM in experiment [2]. Moreover, in experiment [3], the EC50 was found to be 49 nM.

For the compound `CN1CCN(C(=O)Cn2cc(Nc3nc4c(N5CC(CC#N)(n6cc(CCc7ccccc7)cn6)C5)cccn4n3)cn2)CC1` [Example 59, 2-[1-[2-[[1-[2-(4-methylpiperazin-1-yl)-2-oxo-ethyl]pyrazol-4-yl]amino]-[1,2,4]triazolo[1,5-a]pyridin-8-yl]-3-[4-(2-phenylethyl)pyrazol-1-yl]azetidin-3-yl]acetonitrile], the Ki in experiment [1] and in experiment [2] was 0.2 nM throughout. In addition, in experiment [3], the EC50 came to 8 nM.

As to `N#CCC1(n2cc(C(F)(F)F)cn2)CN(c2cccn3nc(Nc4ccc(C(=O)N5CCN(C6COC6)CC5)cc4)nc23)C1` [Example 103, 2-[1-[2-[4-[4-(oxetan-3-yl)piperazine-1-carbonyl]anilino]-[1,2,4]triazolo[1,5-a]pyridin-8-yl]-3-[4-(trifluoromethyl)pyrazol-1-yl]azetidin-3-yl]acetonitrile], the Ki in experiment [1] worked out at 0.3 nM; in experiment [2], 1.7 nM. Also, in experiment [3], the EC50 was determined as 33 nM.
